Our source for the TGI and GI50 values is PubChem BioAssay (NCI).

The structures appear in SMILES notation. Values joined by “and” are separate entries in the source; they are usually repeats but may differ in a detail not shown here. Equal entries are not always repeated.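 Assay format: 96-well plates, 48-hour exposure. Abbreviation: GI50, concentration required for 50% inhibition of growth. TGI marks complete inhibition of growth.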 Where only a bound is given, the exact number is not on record here.

Some test systems named below: HS 578T breast; UACC-257 melanoma; SK-MEL-28 melanoma; SNB-75 CNS; SN12C renal; M14 melanoma; OVCAR-3 ovarian; NCI-H226 lung; HCT-116 colon; HT29 colon.
Assay in all cases: NCI tumour cell line growth inhibition, 48 h

Consider `C/C=C(\C)c1cc(=O)c2c(C)cc3c(c2o1)C(=O)c1c(O)c(C2CC(C)(N(C)C)C(OC(C)=O)C(C)O2)cc(C2CC(N(C)C)C(O)C(C)O2)c1C3=O` (configuration not stated), for which the TGI in the test on HS 578T breast was 18.6 µM; in the test on UACC-257 melanoma, 6.47 µM; with SK-MEL-28 melanoma it was 8.41 µM; in the test on SNB-75 CNS it was 7.33 µM; with SN12C renal, 8.81 µM; with M14 melanoma, 1.85 µM. The TGI with OVCAR-3 ovarian was more than 21 µM; in the test on NCI-H226 lung, 5.57 µM; in the test on HCT-116 colon, 6.33 µM; in the test with HT29 colon it was 6.75 µM.

For `Cc1nn(CNc2ccccc2C(F)(F)F)c(=S)n1/N=C/c1cccc2cccnc12`, the GI50 in the test with HS 578T breast was more than 100 µM; with UACC-257 melanoma, more than 100 µM; with SK-MEL-28 melanoma, more than 100 µM; with SNB-75 CNS, 27.4 µM; in the test with SN12C renal, 19.9 µM; in the test with M14 melanoma, 57.9 µM. Besides, the GI50 was more than 100 µM with OVCAR-3 ovarian, 56.2 µM in the test on NCI-H226 lung and 44.6 µM in the test on HCT-116 colon. Besides, the TGI was more than 100 µM with HS 578T breast; more than 100 µM in the test on UACC-257 melanoma; more than 100 µM in the test with SK-MEL-28 melanoma; more than 100 µM with SNB-75 CNS; 72.7 µM with SN12C renal; more than 100 µM in the test with M14 melanoma. Further, the TGI in the test on OVCAR-3 ovarian, in the test on NCI-H226 lung and with HCT-116 colon was more than 100 µM each time.

Turning to `O=C(NCCCCN1CCOCC1)c1cc2ccccc2o1`, the GI50 in the test with HS 578T breast, in the test with UACC-257 melanoma, in the test on SK-MEL-28 melanoma, with SNB-75 CNS, with SN12C renal and in the test with M14 melanoma was more than 100 µM throughout. For the same compound, the GI50 with OVCAR-3 ovarian, in the test on NCI-H226 lung, with HCT-116 colon and in the test on HT29 colon was more than 100 µM each time. Besides, the TGI with HS 578T breast, in the test on UACC-257 melanoma, with SK-MEL-28 melanoma, with SNB-75 CNS, in the test with SN12C renal and in the test on M14 melanoma was more than 100 µM throughout. Also, the TGI with OVCAR-3 ovarian, in the test with NCI-H226 lung, with HCT-116 colon and in the test with HT29 colon was more than 100 µM each time.

With `CCc1nc(N)nc(N)c1-c1ccc(Cl)c([N+](=O)[O-])c1`, the TGI with HS 578T breast is more than 100 µM; with UACC-257 melanoma, more than 100 µM; in the test on SK-MEL-28 melanoma, more than 100 µM; in the test on SNB-75 CNS, more than 100 µM; with SN12C renal, more than 100 µM; in the test on M14 melanoma, 98.8 µM. The TGI in the test with OVCAR-3 ovarian, in the test with NCI-H226 lung, in the test on HCT-116 colon and in the test on HT29 colon was more than 100 µM throughout.

On to `O=C1N[C@@H]2[C@@H](O)[C@@H](O)[C@H](O)C[C@H]2c2cc3c(c(O)c21)OCCO3`, for which the GI50 with HS 578T breast was 0.27 µM; in the test with UACC-257 melanoma it was 0.34 µM; in the test on SK-MEL-28 melanoma, 0.274 µM; in the test with SNB-75 CNS, 0.466 µM; in the test on SN12C renal it was 0.162 µM; in the test with M14 melanoma, 0.246 µM. Besides, the GI50 in the test on OVCAR-3 ovarian was 0.276 µM; with NCI-H226 lung, 0.273 µM; with HCT-116 colon it was 0.107 µM; in the test with HT29 colon it was 0.315 µM. Moreover, the TGI was found to be 0.976 µM in the test on HS 578T breast; 1.97 µM in the test on UACC-257 melanoma; 1.23 µM in the test with SK-MEL-28 melanoma; 2.62 µM in the test on SNB-75 CNS; 0.978 µM in the test with SN12C renal; 1.04 µM with M14 melanoma. For the same compound, the TGI with OVCAR-3 ovarian came out at 1.01 µM; in the test on NCI-H226 lung it was 1.08 µM; with HCT-116 colon, 1.22 µM; in the test on HT29 colon, 2.08 µM.

Turning to `C=CN(C(=O)N1CCN(c2cc3c(cc2F)c(=O)c(C(=O)O)cn3C2CC2)CC1)c1nc(-c2ccc(OC)cc2)cs1`, the GI50 in the test with HS 578T breast was 3.22 µM; in the test with UACC-257 melanoma, 2.97 µM; with SK-MEL-28 melanoma, 4.26 µM; in the test on SNB-75 CNS, 2.51 µM; in the test with SN12C renal, 3.14 µM; in the test with M14 melanoma, 3.61 µM. The GI50 is 3.29 µM in the test on OVCAR-3 ovarian, 2.9 µM in the test with NCI-H226 lung, 3.42 µM in the test on HCT-116 colon and 3.42 µM in the test on HT29 colon. The TGI in the test on HS 578T breast was 14.5 µM; with UACC-257 melanoma, 7.18 µM; with SK-MEL-28 melanoma, more than 100 µM; in the test on SNB-75 CNS, 6.7 µM; with SN12C renal, more than 100 µM; with M14 melanoma, more than 100 µM. Also, the TGI in the test with OVCAR-3 ovarian, in the test with NCI-H226 lung, in the test with HCT-116 colon and with HT29 colon was more than 100 µM each time.

Turning to `COc1ccc(Nc2nc3cc(N)cc(N)c3nc2-c2ccccc2)cc1`, the GI50 was 14.3 µM with HS 578T breast; 16.8 µM in the test with SK-MEL-28 melanoma; 14.6 µM in the test with SNB-75 CNS; 20.6 µM in the test with SN12C renal; 17.6 µM in the test on M14 melanoma; 17.3 µM in the test with OVCAR-3 ovarian. For the same compound, the GI50 was 23.8 µM in the test with NCI-H226 lung and 14.9 µM in the test with HCT-116 colon. For the same compound, the TGI with HS 578T breast was determined as 46.5 µM; in the test on UACC-257 melanoma, 27.5 µM; in the test on SK-MEL-28 melanoma it was 30.5 µM; in the test on SNB-75 CNS, 42.6 µM; with SN12C renal, 57.4 µM; in the test with M14 melanoma, 36.3 µM. Besides, the TGI with OVCAR-3 ovarian came to 37.3 µM; in the test on NCI-H226 lung, 98.4 µM; with HCT-116 colon it was 28.1 µM; in the test with HT29 colon, 42.7 µM.

On to `COC(=O)[C@@H]1c2cc3c(c(O)c2[C@@H](OC2OC(C)C(OC)C(C)(OC)C2OC)C[C@]1(C)O)C(=O)c1c(O)cc2c(c1C3=O)O[C@H]1O[C@]2(C)[C@H](O)[C@@H](N(C)C)[C@@H]1O` (some centres not stated), for which the TGI with HS 578T breast is 0.147 µM; in the test with UACC-257 melanoma, 0.0638 µM and 0.0472 µM; in the test on SK-MEL-28 melanoma, 0.0699 µM and 0.0273 µM; with SNB-75 CNS it was 0.0522 µM and 0.0125 µM; in the test with SN12C renal it was 2 µM; in the test with M14 melanoma, 0.14 µM and 0.107 µM. The TGI with NCI-H226 lung was 0.0718 µM and 0.0966 µM; in the test with HT29 colon it was 10.1 µM. Further, the GI50 is 0.0123 µM with UACC-257 melanoma, 0.0194 µM in the test on M14 melanoma and 0.0683 µM in the test with OVCAR-3 ovarian.
